Key:
BT549 [1] = assay: Western blot for cleaved caspase 3; format: cell-based
Procedure: (§1) Total protein was obtained from indicated cells by rinsing cells with 1×PBS (phosphate buffered saline) followed by directed lysis in 2× sample buffer (125 mM Tris-HCL at pH 6.8, 2% sodium dodecyl sulfate (SDS), 10% 2-mercaptoethanol, 20% glycerol, 0.05% bromophenol blue, 8 M urea); 2× sample buffer was added to each well and cells scraped with a cell scraper. The lysate was collected from each well, placed into a 1.5 mL microcentrifuge tube and heated for 10 minutes at 95° C. in a dry-bath heat block. Protein lysates were separated by sodium dodecyl sulfate-polyacrylamide gel electrophoresis (SDS-PAGE) at 100V for 1 hour. […] Data was analyzed with NIH Image J. Antibodies were obtained from Cell Signaling Technologies (Danvers, MA): Cleaved Caspase 3 antibody (cat: 94530). […]

LN229 [2] = assay: Western blot for cleaved caspase 3; format: cell-based
Procedure: as §1

FOXO1 = FOXO1 (Homo sapiens, UniProt Q12778); details: cited from earlier work
FOXO1, sequence (Q12778 whole entry, species assumed): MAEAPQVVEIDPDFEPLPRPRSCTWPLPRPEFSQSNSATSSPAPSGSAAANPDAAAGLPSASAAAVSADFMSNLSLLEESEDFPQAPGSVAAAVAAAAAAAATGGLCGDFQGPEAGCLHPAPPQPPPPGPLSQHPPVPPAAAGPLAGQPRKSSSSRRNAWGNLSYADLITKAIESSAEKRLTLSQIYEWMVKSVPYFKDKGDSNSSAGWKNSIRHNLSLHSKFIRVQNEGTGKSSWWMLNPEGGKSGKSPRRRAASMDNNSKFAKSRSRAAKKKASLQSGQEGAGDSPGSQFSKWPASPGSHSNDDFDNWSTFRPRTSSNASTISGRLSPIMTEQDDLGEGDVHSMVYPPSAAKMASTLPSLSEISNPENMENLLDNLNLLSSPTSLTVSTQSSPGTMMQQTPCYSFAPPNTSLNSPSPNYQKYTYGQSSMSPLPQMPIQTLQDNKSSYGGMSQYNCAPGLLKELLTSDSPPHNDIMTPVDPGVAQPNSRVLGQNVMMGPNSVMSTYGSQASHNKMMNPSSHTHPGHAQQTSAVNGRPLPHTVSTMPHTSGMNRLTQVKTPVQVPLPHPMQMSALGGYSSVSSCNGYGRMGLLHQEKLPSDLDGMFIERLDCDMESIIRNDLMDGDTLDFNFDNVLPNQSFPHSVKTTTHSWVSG

LN229 cells = assay: Propidium iodide / FITC-Annexin V flow cytometry; format: cell-based; details: 1 μM, 72 hours
Procedure: (§2) FIGS. 3A-3D: FOXO1 Inhibitor Treatment led to Apoptosis. (FIGS. 3A-3C) LN229 and BT549 cells were treated with 1 μM AS1842856 and were stained with propidium iodide and FITC-Annexin V followed by flow cytometric analyses. […] (FIG. 3D) Western blot analyses were performed with BT549 and LN229 samples that were treated with AS1842856. Both cell lines had increased caspase 3 cleavage.
(§3) FOXO1 inhibition led to apoptosis induction based on Caspase 3 cleavage and flow cytometric analyses. To clarify the impact of FOXO1 on BBC and GBM cell viability, BT549 and LN229 cells were treated with AS1842856 for 48 and 72 hours respectively.

BT549 cells = assay: Propidium iodide / FITC-Annexin V flow cytometry; format: cell-based; details: 1 μM, 48 hours
Procedure: as §2, §3

HCT116 = assay: Colony formation assay (crystal violet); format: cell-based; details: treated five days
BT549 [3] = assay: Colony formation assay (crystal violet); format: cell-based; details: treated five days
Procedure: (§4) Cell culture and drug treatments. Cell lines were obtained from ATCC (American Type Culture Collection, Manassas, VA) and grown under standard conditions (5% CO2, 10% FBS (fetal bovine serum), with 5% antifungal/antibacterial). Cell lines were tested for Mycoplasma using the MycoAlert Mycoplasma Detection Kit (Lonza, Basel Switzerland, cat: LT07-218); all experiments were done with mycoplasma negative cells. U87MG cells were propagated in MEM (Minimal Essential Medium). BT549 and DBTRG cells were propagated in RPMI (Roswell Park Memorial Institute 1640 Medium). LN18, U118MG, A172 and LN229 cells were propagated in DMEM (Dulbecco's Modified Eagle Medium). Neurosphere/cancer stem cell cultures for U87MG and BT549 cell lines were plated with 40,000 cells per mL in 3D Tumorsphere Medium XF (Sigma cat: C-28070, Burlington, MA). BT549 cancer stem cell cultures were supplemented with 1XB27 XenoFree CTS (Gibco/Thermo Fisher Waltham, MA, USA). AS1842856 was purchased from Calbiochem (Danvers, MA) and utilized at 200 nM, 500 nM and 1 μM final concentrations as indicated. AS1708727 was purchased from MedChem Express (Monmouth Junction, NJ) and was used at 0.5 μM, 1.0 µM and 2.0 μM concentrations. 5-aza-2′-deoxycytidine (5-AZA) was purchased from Millipore/Sigma (Burlington, MA) and utilized at a final concentration of 3 μM. Cells were plated at a density of 2,700 cells per mL and were treated five days with indicated drug. Treatments were investigated in triplicate (in numerous independent experiments) and stained with crystal violet. Plates were aspirated of media then each well was washed with 1.0 mL of 1x phosphate buffered saline (PBS) once before being stained with 1.0 mL of crystal violet stain (0.5% crystal violet in buffered formalin) and incubated for 15 minutes. The stain was aspirated, and wells were washed 3 times with 0.5 mL of 1x PBS. After collections were completed, crystal violet-stained plates were solubilized using 0.5 mL on each well of 10% acetic acid and placed on shaker for 1 hour. Solubilized samples were transferred to 96 well plates and quantified on a spectrophotometer at 590 nm. Quantified plates were analyzed with a Tukey test. Error bars were added using the standard deviation. Cells were plated at 2,700 cells per mL and were treated five days with the indicated drug. Treatments were investigated in triplicate (in numerous independent experiments) and stained with crystal violet. Plates were aspirated of media, then each well was washed with 1.0 mL of 1× phosphate-buffered saline (PBS) once before being stained with 1.0 mL of crystal violet stain (0.5% crystal violet in buffered formalin) and incubated for 15 minutes. The stain was aspirated, and cells were washed three times with 0.5 mL of 1×PBS. After collections were completed, crystal violet-stained plates were solubilized using 0.5 mL on each well of 10% acetic acid and placed on a shaker for 1 hour. Solubilized samples were transferred to 96 well plates and quantified on a spectrophotometer at 590 nm using iMark Microplate Absorbance Reader (Bio-Rad, Hercules, CA). Quantified plates were analyzed with a Tukey Test. Error bars were added using the standard deviation.

DBTRG = assay: Colony formation assay (crystal violet); format: cell-based; details: treated five days
Procedure: as §4

A172 = assay: Colony formation assay (crystal violet); format: cell-based; details: treated five days
Procedure: as §4

U87MG cells = assay: Colony formation assay (crystal violet); format: cell-based
Procedure: as §4

LN229 [4] = assay: Colony formation assay (crystal violet); format: cell-based; details: treated five days
Procedure: as §4

SW480 = assay: Colony formation assay (crystal violet); format: cell-based; details: treated five days
Procedure: [The procedure below names another cell line; the source lists this cell line under the same test.] as §4

LN18 = assay: Colony formation assay (crystal violet); format: cell-based; details: treated five days
Procedure: as §4

[5] = system: HCT116 colon cancer cells; assay: Gene expression by qRT-PCR (TUBB reference); format: cell-based; details: 48 hours

SMILES: CCn1cc(C(=O)O)c(=O)c2c(N)c(F)c(NC3CCCCC3)cc21 [AS1842856, 5-Amino-7-(cyclohexylamino)-1-ethyl-6-fluoro-4-oxo-1,4-dihydroquinoline-3-carboxylic acid]
- caspase 3 cleavage (BT549 [1]): positive for caspase 3 cleavage
- caspase 3 cleavage (LN229 [2]): positive for caspase 3 cleavage
- FOXO1 DNA binding and transactivation (FOXO1): reduces DNA binding and transactivation
- Annexin V-FITC and/or PI staining (indicators of apoptosis) (LN229 cells): positive for Annexin V-FITC and/or PI
- Annexin V-FITC and/or PI staining (indicators of apoptosis) (BT549 cells): positive for Annexin V-FITC and/or PI
- colony formation (HCT116): Significantly reduced colony formation
- colony formation (BT549 [3]): fewer cells with 200 nM drug treatment with further reductions using 500 nM and 1 μM drug
- colony formation (DBTRG): fewer cells with 200 nM drug treatment with further reductions using 500 nM and 1 μM drug
- colony formation (A172): fewer cells with 200 nM drug treatment with further reductions using 500 nM and 1 μM drug
- colony number (U87MG cells): colony number was not significantly impacted
- colony formation (LN229 [4]): fewer cells with 200 nM drug treatment with further reductions using 500 nM and 1 μM drug
- colony formation (SW480): Significantly reduced colony formation
- colony formation (LN18): fewer cells with 200 nM drug treatment with further reductions using 500 nM and 1 μM drug
- FAS gene expression [5]: induced the FAS gene

From patent US20240409934A1, “FOXO1-TARGETED THERAPY FOR THE TREATMENT OF CANCER” (BOARD OF REGENTS, THE UNIVERSITY OF TEXAS SYSTEM, priority 2021, published 2024)
